Measured values taken from US20250347692A1, “METHOD FOR DETERMINING THE RESPONSE TO METHOTREXATE (MTX) IN A HUMAN SUBJECT DIAGNOSED WITH RHEUMATOID ARTHRITIS” (BIOHOPE SCIENTIFIC SOLUTIONS FOR HUMAN HEALTH, S.L, priority 2022, published 2025).

Test system: PBMCs from naïve RA patients
Assay: ROS TEST: ROS production of PHA-activated PBMCs exposed to MTX, fluorimetry
Format: cell-based, human
Conditions: PBMCs of naïve RA patients with clinical remission at 6 months of methotrexate (n=17) versus those without (n=8), E. coli stimulated, ANOVA p 0.0003
Text: Therefore, the decision was made to investigate a model of in vitro exposure of RA patients' cells to MTX and the measurement of its direct effect as a pharmacodynamic biomarker of response. […] Therefore, the hypothesis is that treatment of PBMCs with the drug methotrexate causes an increase in reactive oxygen species (ROS) production due to increased apoptosis in T lymphocytes in responder patients. […] Based on the above, in the present example the above two assays will be carried out using PBMCs obtained or isolated from RA patients. Briefly, first, a peripheral blood draw is performed from a rheumatoid arthritis patient who meets the inclusion criteria indicated below in the “Methodology” section, and peripheral blood mononuclear cells (PBMCs) are isolated by density gradient. These PBMCs are frozen and maintained in liquid nitrogen for a time period of at least two weeks. After this time, the PBMCs are thawed and incubated in a flat-bottomed p96 plate at 37° C. and 5% CO2 for 24 hours. The next day, phytohemagglutinin (PHA) and MTX are added to the corresponding wells and the plate is incubated for 48 hours. Finally, the probes corresponding to each test are added: • ROS test: ROS probe+E. coli • MONOCYTE test: resazurin Both tests were carried out on the same plate, read at Ex/Em 535/610 wavelengths, in a fluorescence reader.

## CN(Cc1cnc2nc(N)nc(N)c2n1)c1ccc(C(=O)N[C@@H](CCC(=O)O)C(=O)O)cc1 [MTX, methotrexate]
  ROS production levels (fluorescence units) after exposure of PBMCs to MTX: significantly increased
